In patent US7265152B2 (ViroPharma Incorporated, priority 2002, dated 2007):
Where two headings read alike, the source gives them in different places.

Experiments:
[1] = test system: HCV replicon (BB7 sequence) in Huh-7-Clone A cells; assay: HCV replicon assay: ELISA of NS5A protein in replicon-containing cells (Inhibition of Viral RNA Replication); assay type: cell-based; conditions: Hepatitis C virus, read-out: Replicon
Summary of the method: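 Huh-7-Clone A cells carrying subgenomic BB7 HCV replicon (G418-selectable) incubated 72 h with compound. NS5A protein quantified by cell ELISA: glutaraldehyde fixation, anti-NS5A monoclonal plus HRP secondary, TMB read at OD 650 nm. EC50 derived from 8-point serial dilution dose curve.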

[2] = target: T1, HCV NS5B (Hepatitis C virus genotype 1b, UniProt Q9WMX2); assay: Inhibition of viral RNA-dependent RNA polymerase (RdRp), in vitro biochemical assay; design: species or system HCV genotype 1b virus (BB7); conditions: read-out: HCV pol-BB7 IC50
T1 construct: fusion protein, of which the carboxyl terminal 21 amino acids were removed to enhance its solubility; His tag (GSHHHHHH); made in house; host or cells: E. coli
Summary of the method: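 Purified recombinant NS5B from a genotype 1b consensus (BB7), His-tagged, E. coli-expressed, with the C-terminal 21 residues deleted. Inhibition of RdRp activity in vitro was measured, and IC50 is the concentration giving 50% inhibition.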

[3] = HCV replicon assay, ranges of EC50
[4] = HCV NS5B RdRp, BB7, class symbols A-D
[5] = ranges of EC50 in HCV replicon assay
[6] = HCV replicon assay, ranges of 50% effective concentration (EC50)
[7] = HCV NS5B polymerase, BB7 (genotype 1b), values given as range classes A-D
[8] = Huh-7-Clone A, NS5A ELISA, 72-hour incubation, ranges of EC50
[9] = purified His-tagged NS5B (BB7), carboxyl terminal 21 amino acids removed
[10] = HCV NS5B RdRp, BB7, reported as range class
[11] = HCV NS5B RdRp, BB7, activity class

## CNC(=O)c1c(-c2ccc(F)cc2)oc2cc(N(C)S(C)(=O)=O)c(OCc3c(C)noc3C)cc12 [Example 324, 5-(3,5-Dimethyl-isoxazol-4-ylmethoxy)-2-(4-fluoro-phenyl)-6-(methanesulfonyl-methyl-amino)-benzofuran-3-carboxylic acid methylamide]
[1]; [3]
  EC50: < 1000 nM
[2]; [4]
  IC50: ≤ 500 nM

## CNC(=O)c1c(-c2ccc(F)cc2)oc2cc(-c3cncnc3)c(OC(C)C)cc12 [Example 147, 2-(4-Fluoro-phenyl)-5-isopropoxy-6-pyrimidin-5-y1-benzofuran-3-carboxylic acid mehtylamide]
[1]; [5]
  EC50: < 10000 nM
[2]; HCV NS5B RdRp, BB7 genotype 1b
  IC50: ≤ 500 nM

## CNC(=O)c1c(-c2ccc(F)cc2)oc2cc(NS(C)(=O)=O)c(-c3cccs3)cc12 [Example 420, 2-(4-Fluoro-phenyl)-6-methanesulfonylamino-5-thiophen-2-yl-benzofuran-3-carboxylic acid methylamide]
[1]; [6]
  EC50: < 1000 nM
[2]; [7]
  IC50: ≤ 500 nM

## CNC(=O)c1c(-c2ccc(F)cc2)oc2cc(NS(C)(=O)=O)c(-c3ccco3)cc12 [Example 426, 2-(4-Fluoro-phenyl)-5-furan-2-yl-6-methanesulfonylamino-benzofuran-3-carboxylic acid methylamide]
[1]; [6]
  EC50: < 1000 nM
[2]; [7]
  IC50: ≤ 500 nM

## CNC(=O)c1c(-c2ccc(F)cc2)oc2cc(-c3c(C)noc3C)c(OCc3nnnn3C)cc12 [Example 427, 6-(3,5-Dimethyl-isoxazol-4-yl)-2-(4-fluoro-phenyl)-5-(1-methyl-1H-tetrazol-5-ylmethoxy)-benzofuran-3-carboxylic acid methylamide]
[1]; [6]
  EC50: < 1000 nM
[2]; [7]
  IC50: ≤ 500 nM

## CNC(=O)c1c(-c2ccccc2)oc2ccc(OC(C)C)cc12 [Example 59, 5-Isopropoxy-2-phenyl-benzofuran-3-carboxylic acid methylamide]
[1]; [8]
  EC50: < 30000 nM
[2]; [9]
  IC50: 500 to 5000 nM

## CCN(c1cc2oc(-c3ccc(F)cc3)c(C(=O)NC)c2cc1O)S(C)(=O)=O [Example 297, 6-(Ethyl-methanesulfonyl-amino)-2-(4-fluoro-phenyl)-5-hydroxy-benzofuran-3-carboxylic acid methylamide]
[1]; [3]
  EC50: < 10000 nM
[2]; [4]
  IC50: ≤ 500 nM

## CNC(=O)c1c(-c2ccc(F)cc2)oc2cc(N3CCOCC3)c(OCc3ccc(C#N)cc3)cc12 [Example 213, 5-(4-Cyano-benzyloxy)-2-(4-fluoro-phenyl)-6-morpholin-4-yl-benzofuran-3-carboxylic acid methylamide]
[1]; HCV replicon, range of EC50
  EC50: < 10000 nM
[2]; [10]
  IC50: 500 to 5000 nM

## C=CCOc1cc2c(C(=O)NC)c(-c3ccc(F)cc3)oc2cc1N(C)S(C)(=O)=O [Example 349, 5-Allyloxy-2-(4-fluoro-phenyl)-6-(methanesulfonyl-methyl-amino)-benzofuran-3-carboxylic acid methylamide]
[1]; [3]
  EC50: < 1000 nM
[2]; [11]
  IC50: ≤ 500 nM

## CNC(=O)c1c(-c2ccc(F)cc2)oc2cc(N(Cc3ccncc3)S(C)(=O)=O)c(OC)cc12 [Example 299, 2-(4-Fluoro-phenyl)-6-(methanesulfonyl-pyridin-4-ylmethyl-amino)-5-methoxy-benzofuran-3-carboxylic acid methylamide]
[1]; [3]
  EC50: < 1000 nM
[2]; [4]
  IC50: ≤ 500 nM

## CCc1cc2c(C(=O)NC)c(-c3ccc(F)cc3)oc2cc1NS(C)(=O)=O [Example 44, 5-Ethyl-2-(4-fluoro-phenyl)-6-methanesulfonylamino-benzofuran-3-carboxylic acid methylamide]
[1]; [8]
  EC50: < 10000 nM
[2]; [9]
  IC50: ≤ 500 nM

## CNC(=O)c1c(-c2ccc(F)cc2)oc2cc(-c3ncnn3C)c(OC)cc12 [Example 323, 2-(4-Fluoro-phenyl)-5-methoxy-6-(2-methyl-2H-[1,2,4]triazol-3-yl)-benzofuran-3-carboxylic acid methylamide]
[1]; [3]
  EC50: < 1000 nM
[2]; [4]
  IC50: ≤ 500 nM

## CNC(=O)c1c(-c2ccc(F)cc2)oc2cc(N)c(OC)cc12 [Example 17, 6-Amino-2-(4-fluoro-phenyl)-5-methoxy-benzofuran-3-carboxylic acid methylamide]
[1]; [8]
  EC50: < 10000 nM
[2]; [9]
  IC50: 500 to 5000 nM

## CNC(=O)c1c(-c2ccc(Br)c(F)c2)oc2ccc(OC(C)C)cc12 [Example 90, 2-(4-Bromo-3-fluoro-phenyl)-5-isopropoxy-benzofuran-3-carboxylic acid methylamide]
[1]; [5]
  EC50: < 10000 nM
[2]; HCV NS5B RdRp, BB7 genotype 1b
  IC50: ≤ 500 nM

## CNC(=O)c1c(-c2ccc(F)cc2)oc2cc(S(=O)(=O)N3CCSCC3)c(OC(C)C)cc12 [Example 175, 2-(4-Fluoro-phenyl)-5-isopropoxy-6-(thiomorpholine-4-sulfonyl)-benzofuran-3-carboxylic acid methylamide]
[1]; HCV replicon, range of EC50
  EC50: < 1000 nM
[2]; [10]
  IC50: ≤ 500 nM

## CNC(=O)c1c(-c2ccc(F)cc2)oc2cc(S(=O)(=O)N3CCC(O)CC3)c(OC(C)C)cc12 [Example 169, 2-(4-Fluoro-phenyl)-6-(4-hydroxy-piperidine-1-sulfonyl)-5-isopropoxy-benzofuran-3-carboxylic acid methylamide]
[1]; [5]
  EC50: < 1000 nM
[2]; HCV NS5B RdRp, BB7 genotype 1b
  IC50: ≤ 500 nM

## CNC(=O)c1c(-c2ccc(F)cc2)oc2cc(N(C)S(C)(=O)=O)c(OCc3cccc(C#N)c3)cc12 [Example 356, 5-(3-Cyano-benzyloxy)-2-(4-fluoro-phenyl)-6-(methanesulfonyl-methyl-amino)-benzofuran-3-carboxylic acid methylamide]
[1]; [3]
  EC50: < 1000 nM
[2]; [11]
  IC50: ≤ 500 nM

## CNC(=O)c1c(-c2ccc(F)cc2)oc2cc(-c3c(C)n[nH]c3C)c(OC(C)C)cc12 [Example 246, 6-(3,5-Dimethyl-1H-pyrazol-4-yl)-2-(4-fluoro-phenyl)-5-isopropoxy-benzofuran-3-carboxylic acid methylamide]
[1]; HCV replicon, range of EC50
  EC50: < 1000 nM
[2]; [10]
  IC50: ≤ 500 nM

## CNC(=O)c1c(-c2ccc(F)cc2)oc2cc(S(=O)(=O)N(C)C)c(OC(C)C)cc12 [Example 144, 6-Dimethylsulfamoyl-2-(4-fluoro-phenyl)-5-isopropoxy-benzofuran-3-carboxylic acid methylamide]
[1]; [5]
  EC50: < 30000 nM
[2]; HCV NS5B RdRp, BB7 genotype 1b
  IC50: ≤ 500 nM

## CNC(=O)c1c(-c2ccc(F)cc2)oc2cc(N(C)S(C)(=O)=O)c(OCC(=O)O)cc12 [Example 386, [2-(4-Fluoro-phenyl)-6-(methanesulfonyl-methyl-amino)-3-methylcarbamoyl-benzofuran-5-yloxy]-acetic acid]
[1]; [6]
  EC50: < 30000 nM
[2]; [7]
  IC50: ≤ 500 nM

## CNC(=O)c1c(-c2ccccc2)oc2ccc(C)cc12 [Example 9, 5-Methyl-2-phenyl-benzofuran-3-carboxylic acid methylamide]
[1]; [8]
  EC50: < 10000 nM
[2]; [9]
  IC50: 500 to 5000 nM

## CNC(=O)c1c(-c2ccc(F)cc2)oc2cc(-c3ccnn3C)c(OC(C)C)cc12 [Example 231, 2-(4-Fluoro-phenyl)-5-isopropoxy-6-(2-methyl-2H-pyrazol-3-yl)-benzofuran-3-carboxylic acid methylamide]
[1]; HCV replicon, range of EC50
  EC50: < 1000 nM
[2]; [10]
  IC50: ≤ 500 nM

## C=CCOc1cc2c(C(=O)NC)c(-c3ccc(F)cc3)oc2cc1N(CC=C)S(C)(=O)=O [Example 288, 6-(Allyl-methanesulfonyl-amino)-5-allyloxy-2-(4-fluoro-phenyl)-benzofuran-3-carboxylic acid methylamide]
[1]; [3]
  EC50: < 1000 nM
[2]; [4]
  IC50: ≤ 500 nM

## CNC(=O)c1c(-c2ccc(F)cc2)oc2cc(N(C)S(C)(=O)=O)c(OCC(=O)c3ccc(F)cc3)cc12 [Example 360, 2-(4-Fluoro-phenyl)-5-[2-(4-fluoro-phenyl)-2-oxo-ethoxy]-6-(methanesulfonyl-methyl-amino)-benzofuran-3-carboxylic acid methylamide]
[1]; [3]
  EC50: < 1000 nM
[2]; [11]
  IC50: ≤ 500 nM

## CNC(=O)c1c(-c2ccccc2)oc2c(C)cc(OC)cc12 [Example 63, 5-Methoxy-7-methyl-2-phenyl-benzofuran-3-carboxylic acid methylamide]
[1]; [8]
  EC50: < 10000 nM
[2]; [9]
  IC50: 500 to 5000 nM

## CNC(=O)c1c(-c2ccc(F)cc2)oc2cc(N(CC(C)C)S(C)(=O)=O)c(O)cc12 [Example 326, 2-(4-Fluoro-phenyl)-5-hydroxy-6-(isobutyl-methanesulfonyl-amino)-benzofuran-3-carboxylic acid methylamide]
[1]; [3]
  EC50: < 30000 nM
[2]; [4]
  IC50: 500 to 5000 nM

## CNC(=O)c1c(-c2ccc(F)cc2)oc2cc(CN3CCOCC3)c(OC(C)C)cc12 [Example 223, 2-(4-Fluoro-phenyl)-5-isopropoxy-6-morpholin-4-ylmethyl-benzofuran-3-carboxylic acid methylamide]
[1]; HCV replicon, range of EC50
  EC50: < 10000 nM
[2]; [10]
  IC50: 5000 to 30000 nM

## CCc1cc2c(C(=O)NC)c(-c3ccc(F)cc3)oc2cc1N(CCO)S(C)(=O)=O [Example 46, 5-Ethyl-2-(4-fluoro-phenyl)-6-[(2-hydroxy-ethyl)-methanesulfonyl-amino]-benzofuran-3-carboxylic acid methylamide]
[1]; [8]
  EC50: < 1000 nM
[2]; [9]
  IC50: ≤ 500 nM

## CNC(=O)c1c(-c2ccc(F)cc2)oc2cc(-c3ncon3)c(OC(C)C)cc12 [Example 205, 2-(4-Fluoro-phenyl)-5-isopropoxy-6-[1,2,4]oxadiazol-3-yl-benzofuran-3-carboxylic acid methylamide]
[1]; HCV replicon, range of EC50
  EC50: < 1000 nM
[2]; [10]
  IC50: ≤ 500 nM
